The text below walks through data of US20250129049A1, “1H-PYRAZOLE-3-AMINE DERIVATIVE HAVING BICYCLIC BACKBONE” (Sumitomo Pharma Co., Ltd., priority 2021, published 2025).

One series deals with hERG current (Homo sapiens (Human), UniProt Q12809). The series is described as follows: cell-based.
A further series has as its target CHK1 kinase (Homo sapiens (Human), UniProt O14757).
The subject of the next series is ES-2 cells. In words: Cell growth suppression experiment (ES-2). The series is classed as cell-based. The conditions noted are these: Homo sapiens, 48 h, cultured 2 days, CellTiter-Glo 3D. As to the method:
ES-2 cells were obtained from the American Type Culture Collection (ATCC). These cells were cultured at 37° C. in the presence of 5% CO2 in a McCoy's 5a medium containing 10% fetal bovine serum and 1% penicillin/streptomycin.
500 cells were seeded for each well in a 384-well plate, and the evaluated compound was added to the final DMSO concentration of 0.1% to culture the cells for 2 days. After completion of the culture, the cell viability rate was calculated using CellTiter-Glo (registered trademark) 3D Reagent (Promega, G968B).

Another series concerns the target hERG (Homo sapiens (Human), UniProt Q12809). In words: in vitro. The conditions noted are these: CHO cells stably expressing hERG.
In another series the test system is HT1080 cells. The series is described as follows: Cell growth suppression test on various cancer cell lines: HT1080. The series is classed as cell-based. The conditions noted are these: Homo sapiens, HT-1080, 72 h; HT1080 (soft tissue sarcoma), cultured 3 days. As to the method:
(§1) HT1080 cells (derived from soft tissue sarcoma) were cultured at 37° C. in the presence of 5% CO2 in an EMEM medium containing 10% fetal bovine serum and 1% penicillin/streptomycin. SJCRH30 cells (derived from soft tissue sarcoma) and BxPC3 cells (derived from pancreatic cancer) were cultured at 37° C. in the presence of 5% C02 in a McCoy's 5a medium containing 10% fetal bovine serum and 1% penicillin/streptomycin. SW948 cells (derived from colon cancer) were cultured at 37° C. in air in a L-15 medium containing 10% fetal bovine serum and 1% penicillin/streptomycin.
(§2) The cells were seeded for each well in a 96-well plate at 70-90% confluency 96 hours after seeding, the evaluated compound was added to the final DMSO concentration of 0.1%, and the cells were cultured for 3 days. After completion of the culture, the cell viability rate was calculated using CellTiter-Glo (registered trademark) 3D Reagent (Promega, G968B).

Another series concerns SW948 cells. The series is described as follows: Cell growth suppression test on various cancer cell lines: SW948. It counts as cell-based. The following applies: Homo sapiens, 72 h; SW948 (colon cancer), cultured 3 days. As to the method:
as §1, §2

A further series concerns BxPC3 cells. In words: Cell growth suppression test on various cancer cell lines: BxPC3. The following applies: Homo sapiens, BXPC-3, 72 h; BxPC3 (pancreatic cancer), cultured 3 days. It counts as cell-based. As to the method:
as §1, §2

The subject of another series is SJCRH30 cells. The series is described as follows: Cell growth suppression test on various cancer cell lines: SJCRH30. The series is classed as cell-based. The conditions noted are these: 72 h; SJCRH30 (soft tissue sarcoma), cultured 3 days. As to the method: as §1, §2
Series [1] in a line: Liposome encapsulation test. It counts as physicochemical. The following applies: concentration upon compound introduction 2 or 3 mg/mL. As to the method: 6.48 g of hydrogenated soybean phosphatidylcholine (COATSOME NC-21E, NOF Corporation), 2.32 g of cholesterol (Sigma) and 2.06 g of distearoylphosphatidylethanolamine-methoxypolyethylene glycol 2000 (SUNBRIGHT DSPE-020CN, NOF Corporation) were dissolved in 560 mL of t-butyl alcohol heated to 65° C. The solution was frozen with dry ice/acetone bath and t-butyl alcohol was then removed by evaporation under reduced pressure to obtain a lipid mixture.
200 mL of 250 mM ammonium sulfate solution was added to the lipid mixture. The resulting mixture was heated to 65° C. and dispersed with a homogenizer (ULTRA-TURRAX, IKA) to obtain a crude liposome dispersion. […] A dialysis cassette (Slide-A-Lyzer G2 Dialysis Cassettes 20K MWCO, Thermo Scientific) was used to replace the outer aqueous phase of the liposome with a 10 mM L-histidine buffer/10% sucrose solution (pH 6.5) to obtain an empty liposome solution. The solution was filtered through a 0.22 μm membrane filter, and a 10 mM L-histidine buffer/10% sucrose solution (pH 6.5) was added to adjust the total lipid concentration to be 75 mM (75 μmol/mL) or 50 mM (50 μmol/mL). The prepared amount was increased or decreased appropriately.
2 to 3 mg of the test compound was weighed out. 1 mL of the empty liposome solution with a total lipid concentration of 50 mM was added. An aqueous 1 mol/L hydrochloric acid or 1 mol/L sodium hydroxide solution was added to adjust the pH to 5.5 to 7. […] Insoluble substances, when present, were removed by centrifugation for 5 minutes at 15,000× g.
The liposome encapsulation ratio was calculated as follows.
100 μL of liposome solution was passed through an ultrafiltration filter (Amicon Ultra, 100K, 0.5 mL, Merck), and centrifuged at 4° C. at 15,000×g for 10 minutes. The concentration of the compound in the filtrate after ultrafiltration was measured by HPLC as the unencapsulated compound concentration.
The liposome solution was diluted with a trifluoroacetic acid/water/methanol mixture (0.1/25/75) and was left standing for 10 minutes or longer at 5° C. The solution was centrifuged for 5 minutes at 15,000× g to remove insoluble substances. The compound concentration in the supernatant was measured by HPLC as the compound concentration in the liposome solution.
The encapsulation ratio and the encapsulation efficiency were calculated by the following equations.
HPLC measurement conditions are the following.

The nature of series [2]: Pharmacokinetic test, intravenous administration to mice. It counts as in vivo. The conditions noted are these: female, BALB/c, mouse, plasma, liposome formulations, 1.0 mg/kg i.v., trapezoidal method, 0 hours to last quantifiable time. As to the method:
Blood was collected over time up to 72 hours after administration from the jugular vein under no anesthesia.

Sequence of CHK1 kinase (O14757 whole entry): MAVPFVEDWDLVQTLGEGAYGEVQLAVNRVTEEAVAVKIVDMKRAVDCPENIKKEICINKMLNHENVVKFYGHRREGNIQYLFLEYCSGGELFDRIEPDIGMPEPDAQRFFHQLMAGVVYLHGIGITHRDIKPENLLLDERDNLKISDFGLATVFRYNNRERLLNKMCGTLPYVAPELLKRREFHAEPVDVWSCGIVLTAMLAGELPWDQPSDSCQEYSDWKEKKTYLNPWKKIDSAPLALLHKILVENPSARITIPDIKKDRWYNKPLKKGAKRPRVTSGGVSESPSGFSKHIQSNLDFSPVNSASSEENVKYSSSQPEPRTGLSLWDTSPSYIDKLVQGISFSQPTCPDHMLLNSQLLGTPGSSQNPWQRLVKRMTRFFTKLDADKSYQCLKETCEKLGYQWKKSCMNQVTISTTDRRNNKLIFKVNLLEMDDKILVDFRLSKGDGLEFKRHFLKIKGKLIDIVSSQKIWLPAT
Sequence of hERG current (Q12809 whole entry): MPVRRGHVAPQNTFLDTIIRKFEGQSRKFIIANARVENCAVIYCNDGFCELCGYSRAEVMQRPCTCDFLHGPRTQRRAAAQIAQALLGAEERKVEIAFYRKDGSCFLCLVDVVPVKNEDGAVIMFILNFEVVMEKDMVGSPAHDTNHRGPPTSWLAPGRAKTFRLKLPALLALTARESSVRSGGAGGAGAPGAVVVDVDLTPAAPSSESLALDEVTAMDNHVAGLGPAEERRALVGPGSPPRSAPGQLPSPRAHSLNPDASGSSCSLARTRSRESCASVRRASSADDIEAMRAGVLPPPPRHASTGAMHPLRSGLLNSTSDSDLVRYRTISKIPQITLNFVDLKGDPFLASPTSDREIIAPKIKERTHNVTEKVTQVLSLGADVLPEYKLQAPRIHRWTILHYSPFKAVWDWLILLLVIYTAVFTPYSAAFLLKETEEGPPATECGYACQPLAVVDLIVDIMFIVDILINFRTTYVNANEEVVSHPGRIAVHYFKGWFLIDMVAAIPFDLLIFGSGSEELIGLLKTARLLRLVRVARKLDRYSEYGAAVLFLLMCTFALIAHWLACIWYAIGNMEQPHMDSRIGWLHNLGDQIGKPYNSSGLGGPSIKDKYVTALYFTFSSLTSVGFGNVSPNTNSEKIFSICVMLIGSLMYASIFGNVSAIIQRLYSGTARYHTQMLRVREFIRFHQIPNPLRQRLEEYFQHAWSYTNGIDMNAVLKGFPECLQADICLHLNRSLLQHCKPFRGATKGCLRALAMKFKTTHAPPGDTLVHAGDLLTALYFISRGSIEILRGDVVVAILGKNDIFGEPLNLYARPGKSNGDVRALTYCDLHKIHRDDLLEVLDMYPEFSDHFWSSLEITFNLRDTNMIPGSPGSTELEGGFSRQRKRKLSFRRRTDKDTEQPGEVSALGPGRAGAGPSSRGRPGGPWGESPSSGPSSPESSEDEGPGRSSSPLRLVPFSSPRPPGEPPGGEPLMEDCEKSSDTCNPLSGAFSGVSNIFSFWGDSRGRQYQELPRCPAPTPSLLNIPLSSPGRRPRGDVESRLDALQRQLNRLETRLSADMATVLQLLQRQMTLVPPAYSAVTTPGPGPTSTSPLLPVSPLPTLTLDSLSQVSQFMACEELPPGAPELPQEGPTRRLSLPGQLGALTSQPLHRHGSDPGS
Sequence of hERG (Q12809 whole entry): as above

As a reminder, the IC50 is the concentration needed to halve the response being measured. In the case of `N#Cc1cnc(Nc2cc(-c3c(O[C@H]4C[C@H](N)[C@H]5C[C@H]54)cnc4c3OCC4)[nH]n2)cn1` [Example 29, 5-{[5-(6-{[(1R,2S,4S,5S)-4-aminobicyclo[3.1.0]hexan-2-yl]oxy)-2,3-dihydrofuro[3,2-b]pyridin-7-yl)-1H-pyrazol-3-yl]amino}pyrazine-2-carbonitrile], the IC50 is over 10000 nM at hERG current, 0.33 nM against CHK1 kinase and 29.4 nM in the series with ES-2 cells.
As to `N#Cc1cnc(Nc2cc(-c3c(OCC4(F)CNC4)cnc4cccnc34)[nH]n2)cn1` [Example 35, 5-[(5-{3-[(3-fluoroazetidin-3-yl)methoxy]-1,5-naphthyridin-4-yl}-1H-pyrazol-3-yl)amino]pyrazine-2-carbonitrile], the IC50 was over 10000 nM against hERG current, 0.6 nM against CHK1 kinase and 8 nM with ES-2 cells. In addition, on hERG, the selectivity ratio is at least 800.
For `COc1cccc(OCCCN)c1-c1cc(Nc2cnc(C#N)cn2)n[nH]1` [Prexasertib, reference compound], the IC50 was determined as 14.9 nM in the series on HT1080 cells; 38.9 nM in the series on SW948 cells; 9.5 nM in the series with BxPC3 cells; 8.55 nM with ES-2 cells; 4.9 nM in the series on SJCRH30 cells. The “Compound concentration in liposome solution” value (shortened to “Compound concentration”) in series [1] was found to be 2160 µg/mL.
As for `N#Cc1cnc(Nc2cc(-c3c(OCCCN)cnc4cccnc34)[nH]n2)cn1` [Example 8, 5-({5-[3-(3-aminopropoxy)-1,5-naphthyridin-4-yl]-1H-pyrazol-3-yl}amino)pyrazine-2-carbonitrile], the IC50 is 9.1 nM in the series with HT1080 cells; 22.3 nM with SW948 cells; 0.5 nM against CHK1 kinase; 7 nM in the series on BxPC3 cells; 7.02 nM in the series on ES-2 cells; under 3 nM with SJCRH30 cells.
`N#Cc1cnc(Nc2cc(-c3c(O[C@@H]4CCC[C@H](N)C4)cnc4c3OCC4)[nH]n2)cn1` [Example 24, 5-{[5-(6-{[(1R,3S)-3-aminocyclohexyl]oxy}-2,3-dihydrofuro[3,2-b]pyridin-7-yl)-1H-pyrazol-3-yl]amino}pyrazine-2-carbonitrile]: the IC50 is 4800 nM against hERG current, 0.31 nM against CHK1 kinase and 12.7 nM with ES-2 cells.
`N#Cc1cnc(Nc2cc(-c3c(OCC4(CN)CC4)ccc4c3OCC4)[nH]n2)cn1` [Example 4, 5-{[5-(6-{[1-(aminomethyl)cyclopropyl]methoxy}-2,3-dihydro-1-benzofuran-7-yl)-1H-pyrazol-3-yl]amino}pyrazine-2-carbonitrile]: the IC50 at hERG current amounted to 300 nM; on CHK1 kinase it was 0.27 nM; with ES-2 cells, 9.1 nM.
One may read the AUC(0-t) as exposure summed from dosing to a finite time, without extrapolation to infinity. Turning to `N#Cc1cnc(Nc2cc(-c3c(OCC4(CN)CC4)cnc4c3OCC4)[nH]n2)cn1` [Example 14, 5-{[5-(6-{[1-(aminomethyl)cyclopropyl]methoxy)-2,3-dihydrofuro[3,2-b]pyridin-7-yl)-1H-pyrazol-3-yl]amino}pyrazine-2-carbonitrile], the IC50 at hERG current was over 10000 nM; against CHK1 kinase, 0.27 nM; in the series on ES-2 cells, 3.72 nM. The same molecule came in with an AUC(0-t) in [2] of 397 µg·h/mL. The “Compound concentration” value in series [1] stood at 1940 µg/mL. For the same molecule, in [1], the Encapsulation ratio is listed as 99.9%. Further, at hERG, the selectivity ratio is at least 800.
With `N#Cc1cnc(Nc2cc(-c3c(OC[C@@H]4CNCCO4)cnc4cccnc34)[nH]n2)cn1` [Example 12], the IC50 against hERG current is 1000 nM; on CHK1 kinase it was 0.38 nM; in the series on ES-2 cells, 23.2 nM.
Turning to `C[C@H](CN)COc1cnc2c(c1-c1cc(Nc3cnc(C#N)cn3)n[nH]1)OCC2` [Example 28, 5-[(5-{6-[(2R)-3-amino-2-methylpropoxy]-2,3-dihydrofuro[3,2-b]pyridin-7-yl}-1H-pyrazol-3-yl)amino]pyrazine-2-carbonitrile], the IC50 in the series on HT1080 cells was under 3 nM; with SW948 cells, 5 nM; against CHK1 kinase, 0.43 nM; with BxPC3 cells, under 3 nM; with ES-2 cells, 6.4 nM; in the series on SJCRH30 cells, under 3 nM.
In the case of `N#Cc1cnc(Nc2cc(-c3c(OCCCN)ccc4c3OCC4)[nH]n2)cn1` [Example 3, 5-({5-[6-(3-aminopropoxy)-2,3-dihydro-1-benzofuran-7-yl]-1H-pyrazol-3-yl}amino)pyrazine-2-carbonitrile], the IC50 on hERG current was found to be 530 nM; in the series on ES-2 cells it was 4 nM.
For `N#Cc1cnc(Nc2cc(-c3c(OCCCN)ccc4ccnn34)[nH]n2)cn1` [Example 6, 5-({5-[6-(3-aminopropoxy)pyrazolo[1,5-a]pyridin-7-yl]-1H-pyrazol-3-yl}amino)pyrazine-2-carbonitrile], the half-maximal inhibitory concentration (IC50) came to 1300 nM against hERG current, 0.21 nM on CHK1 kinase and 6.24 nM with ES-2 cells. In addition, the exposure AUC(0-t) in [2] is 430 µg·h/mL. In series [1], the “Compound concentration” value was found to be 1880 µg/mL. In addition, the Encapsulation ratio in [1] was determined as 100.0%.
